Legend:
[1] = target: T1, Full Length hPPARγ (Homo sapiens, UniProt P37231); test: Full length hPPARγ transfection assay; assay type: cell-based; conditions: full length receptor; scale 1-5; read-out: Full Length hPPAR γ EC50 (scaled number)
T1 construct: Full Length; expressed in transfected cells; host or cells: Cos cells
T1 sequence (P37231 1-505): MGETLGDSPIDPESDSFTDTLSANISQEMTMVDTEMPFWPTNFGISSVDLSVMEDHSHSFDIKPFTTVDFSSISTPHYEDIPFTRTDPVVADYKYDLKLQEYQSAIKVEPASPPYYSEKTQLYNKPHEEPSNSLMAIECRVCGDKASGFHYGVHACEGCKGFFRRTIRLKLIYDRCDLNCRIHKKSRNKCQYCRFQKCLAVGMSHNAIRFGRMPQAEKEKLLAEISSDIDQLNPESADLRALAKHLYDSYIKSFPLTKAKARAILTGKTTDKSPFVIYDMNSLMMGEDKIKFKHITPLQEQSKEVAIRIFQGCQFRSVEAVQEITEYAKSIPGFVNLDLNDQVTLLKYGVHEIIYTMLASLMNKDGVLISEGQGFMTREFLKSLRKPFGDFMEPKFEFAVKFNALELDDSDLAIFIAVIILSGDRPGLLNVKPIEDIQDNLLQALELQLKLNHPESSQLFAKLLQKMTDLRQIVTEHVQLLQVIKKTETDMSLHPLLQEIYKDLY
Experimental: (§1) Transient transfection assays. Cos cells were seeded in 60-mm dishes at a density of 5.5×10^5 cells/dish in Dulbecco's modified Eagle's medium (DMEM) supplemented with 10% fetal calf serum (FCS) and incubated at 37° C. for 24 hours before transfection. Cells were transfected in Opti-MEM (Gibco; Invitrogen, Carlsbad, Calif.) without FCS for 3 hours at 37° C., using polyethylenimine, with reporter and expression plasmids. The plasmid pBluescript (Stratagene, La Jolla, Calif.) was used as carrier DNA to set the final amount of DNA to 5.5 μg/dish. The pCMV-b-galactosidase expression plasmid was cotransfected as a control for transfection efficiency. Transfection was stopped by the addition of DMEM supplemented with 10% FCS, and cells were then incubated at 37° C. After 16 hours, cells were trypsinized and seeded in 96-well plates at the density of 2×10^4 cells/well and incubated for 6 hours in 10% FCS-containing DMEM. Cells were then incubated for 24 hours in DMEM containing 0.2% FCS and increasing concentrations of the compound tested or vehicle (DMSO). At the end of the experiment, cells were washed once with ice-cold PBS, lysed and the luciferase and b-galactosidase assays were performed in a luminometer and spectrophotomer. Transfection efficiencies were normalized with the b-galactosidase activity assay. Half-maximal effective concentration (EC50) was estimated using Prism software (GraphPad). All transfection experiments were performed at least three times.
(§2) In the following tables, proprietary compound EC50 values for hPPAR α, β, δ and γ are shown. The EC50 value is the concentration of a drug that induces a response halfway between the baseline and maximum, and is commonly used as a measure of drug potency. EC50 values are reported on a scale of 1 through 5, wherein the value scale is defined for each receptor as follows: […]

[2] = target: T2, Full Length hPPARα (Homo sapiens, UniProt Q07869); test: Full length hPPARα transfection assay; assay type: cell-based; conditions: full length receptor; read-out: Full Length hPPAR α EC50 (scaled number)
T2 construct: Full Length; expressed in transfected cells; host or cells: Cos cells
T2 sequence (Q07869 1-468): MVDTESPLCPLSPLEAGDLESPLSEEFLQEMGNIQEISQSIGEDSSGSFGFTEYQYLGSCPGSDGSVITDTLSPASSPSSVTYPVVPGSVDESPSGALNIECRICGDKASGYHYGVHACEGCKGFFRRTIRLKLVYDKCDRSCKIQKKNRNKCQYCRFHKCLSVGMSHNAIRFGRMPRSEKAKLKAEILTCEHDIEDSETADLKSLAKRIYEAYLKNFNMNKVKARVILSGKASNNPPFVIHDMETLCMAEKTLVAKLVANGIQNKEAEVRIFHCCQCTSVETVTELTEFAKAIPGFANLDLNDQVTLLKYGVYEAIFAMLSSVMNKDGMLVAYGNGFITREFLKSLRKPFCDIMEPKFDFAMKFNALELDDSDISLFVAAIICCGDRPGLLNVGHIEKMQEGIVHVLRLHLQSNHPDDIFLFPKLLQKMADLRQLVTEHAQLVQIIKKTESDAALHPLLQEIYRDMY
Experimental: as §1, §2

[3] = Metabolism studies using human liver microsomal preparations; assay type: in vitro ADME; conditions: for HLMs Predominant Enzyme: comparison of half life with and without NADPH: Esterase, CYP or Mixed; for half-life: pH 7.4, read-out: HLMs t1/2
Summary of the method: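 Pooled human liver microsomes in 50 mM Tris pH 7.4 with 5 mM MgCl2 at 37° C, with or without NADPH-generating system; buffer-only control for stability. Parent loss and acid metabolite formation followed by LC-MS/MS over 0–90 min. Half-life reported with NADPH; comparison with (−)NADPH assigns predominant enzyme.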

[4] = pooled human liver microsomes, with NADPH (CYP system active), 37° C.

| Compound | EC50 [1] | EC50 [2] | HLMs t1/2 (min) [3, 4] | HLMs Predominant Enzyme [3] | half-life [3, 4] |
| --- | --- | --- | --- | --- | --- |
| CCCCCCCCn1c(COC(=O)c2ccc(SC(C)(C)C(=O)O)cc2)nn(Cc2ccc(C)cc2)c1=O [Compound 161, 2-methyl-2-(4-(((1-(4-methylbenzyl)-4-octyl-5-oxo-4,5-dihydro-1H-1,2,4-triazol-3-yl)methoxy)carbonyl)phenylthio)propanoic acid] | 201 to 999 nM | < 1 nM | – | Esterase | 12 min |
| CCCCCCCn1c(COC(=O)c2ccc(SC(C)(C)C(=O)O)cc2)nn(Cc2ccc(C)cc2)c1=O [Compound 191, 2-(4-(((4-heptyl-1-(4-methylbenzyl)-5-oxo-4,5-dihydro-1H-1,2,4-triazol-3-yl)methoxy)carbonyl)phenylthio)-2-methylpropanoic acid] | 51 to 200 nM | < 1 nM | – | Esterase | 15 min |
| CCCCCCCCn1c(COC(=O)c2ccc(OC(C)(C)C(=O)O)c(OC)c2)nn(Cc2ccc(C)cc2)c1=O [Compound 186, 2-(2-methoxy-4-(((1-(4-methylbenzyl)-4-octyl-5-oxo-4,5-dihydro-1H-1,2,4-triazol-3-yl)methoxy)carbonyl)phenoxy)-2-methylpropanoic acid] | 51 to 200 nM | 51 to 200 nM | – | CYP | 42 min |

Second part, the compound after the results:

| EC50 [1] | EC50 [2] | HLMs t1/2 (min) [3, 4] | HLMs Predominant Enzyme [3] | half-life [3, 4] | Compound |
| --- | --- | --- | --- | --- | --- |
| 201 to 999 nM | < 1 nM | Stable | – | – | CCCCCCn1c(COC(=O)c2ccc(SC(C)(C)C(=O)O)cc2)nn(Cc2ccc(C)cc2)c1=O [Compound 160, 2-(4-(((4-hexyl-1-(4-methylbenzyl)-5-oxo-4,5-dihydro-1H-1,2,4-triazol-3-yl)methoxy)carbonyl)phenylthio)-2-methylpropanoic acid] |
| 51 to 200 nM | < 1 nM | – | CYP | 90 min | CCCCCCCn1c(COC(=O)c2ccc(SC(C)(C)C(=O)O)cc2)nn(Cc2ccc(C(C)(C)C)cc2)c1=O [Compound 189, 2-(4-(((1-(4-tert-butylbenzyl)-4-heptyl-5-oxo-4,5-dihydro-1H-1,2,4-triazol-3-yl)methoxy)carbonyl)phenylthio)-2-methylpropanoic acid] |
| 51 to 200 nM | < 1 nM | – | Mixed | 38 min | CCCCCCn1c(COC(=O)c2ccc(SC(C)(C)C(=O)O)cc2)nn(Cc2ccc(C(C)(C)C)cc2)c1=O [Compound 187, 2-(4-(((1-(4-tert-butylbenzyl)-4-hexyl-5-oxo-4,5-dihydro-1H-1,2,4-triazol-3-yl)methoxy)carbonyl)phenylthio)-2-methylpropanoic acid] |
